We go through 3 compounds from patent US9358236B2, “Combinations of therapeutic agents for use in the treatment of neurodegenerative diseases” (Novartis AG, priority 2011, dated 2016).

In experiment [1] the test system is p-S6 S240/244. Briefly: mTORC1 activity (p-S6 S240/244) by Western blot in R6/2 brain slices. The format is cell-based, mouse. Conditions: R6/2 slices treated DIV14 to DIV21, analysed at DIV21. Background: Immunoblotting shows a protein as a band on a membrane.
Experiment [2] deals with LC3-II/I conversion. Briefly: Autophagy induction (LC3-II/I conversion) by Western blot in R6/2 brain slices. The format is cell-based. The note with it: R6/2 slices treated DIV14 to DIV21, analysed at DIV21. On the procedure:
(§1) Transgenic mice expressing human Huntingtin Exon-1Q200 (R6/2 mouse model described in Davies et al., 1997) were housed in a temperature-controlled room and maintained on a 12 hr light/dark cycle. Food and water were available ad libitum and experiments were carried out in accordance with the local authorization guidelines for the care and use of laboratory animals. Slice cultures were established according to the procedure described by Stoppini and colleagues (Stoppini et al., 1991 and Gogolla et al., 2006) and a particular cutting angle was utilized to produce brain slices with a preserved cortico-striatal pathway. Finally, slices were selected, placed on Millicel (Millipore, PICM03050) and cultured in 6-well dishes at 35° C. and 5% CO2 in the presence of 1 ml of culture medium.
Slices were treated with different mTOR inhibitors from DIV14 to DIV21. The culture medium was exchanged every second day, and drugs were added in the fresh culture medium. We used this protocol to evaluate the action of the following mTOR inhibitors: BEZ235 (50 and 300 nM in DMSO), RAD001 (250 nM in DMSO), CCG168 (300 nM in DMSO), RAD001+BEZ235 (250 10, 250 30 and 250 50 nM in DMSO) and RAD001'CCG168 (250 and 50 nM in DMSO).
Slices were washed in PBS and lysed in 1% Triton X-100/PBS containing Complete Mini (Roche, #04693124001) and PhosSTOP (Roche, #04906837001). Lysates were ultrasonicated and analysed by Western blotting for B-actin (Sigma, #A5441), pS6 Ser 240/244 (Cell Signalling, #2215), and LC3B (Cell Signalling, #2775). Immunoblots were developed with ECL detection reagent (Amersham Biosciences).

The subject of experiment [3] is polyQ inclusions. Briefly: polyQ density by immunohistochemistry in R6/2 brain slices. The note with it: R6/2 slices at DIV21, vs control R6/2. It is filed as cell-based, mouse. As to the method: as §1
(§2) Slices were treated with different mTOR inhibitors from DIV14 to DIV21. The culture medium was exchanged every second day, and drugs were added in the fresh culture medium. […]
(§3) High resolution images were acquired on an upright Zeiss LSM700 confocal microscope, using a Plan-Neofluar 40×/1.3 oil immersion objective. For the quantification of the PolyQ density and DARPP-32/NeuF signal intensity, at least three confocal 3D stacks/slice were acquired in striatum for each experiment (five slices per condition), and analyzed using Imaris 4.2 (Bitplane AG) and Image J softwares.
(§4) All data are expressed as mean±SEM. […]

The test system of experiment [4] is DARPP-32. Briefly: Striatal degeneration: DARPP-32 intensity in R6/2 brain slices. The format is cell-based, mouse. The note with it: R6/2 slices at DIV21. On the procedure:
as §1, §2, §3, §4

The subject of experiment [5] is neurofilament. Nature of the experiment: Striatal degeneration: neurofilament intensity in R6/2 brain slices. Conditions: R6/2 slices at DIV21. It is filed as cell-based, mouse. As to the method: as §1, §2, §3, §4
The target in experiment [6] is mTOR (Homo sapiens, UniProt P42345). Conditions: low concentration; Serra et al., 2008; cited from earlier work.
Experiment [7] deals with PI3K/mTOR. Conditions: relatively higher concentrations; Serra et al., 2008; cited from earlier work.
Where [8] appears, read: single low-concentration (50 nM).
[9] abbreviates: single low-concentration (250 nM).

Entries after “also recorded” stand apart in the source; their conditions may differ.

Consider `Cn1c(=O)n(-c2ccc(C(C)(C)C#N)cc2)c2c3cc(-c4cnc5ccccc5c4)ccc3ncc21` [BEZ235, 2-methyl-2-[4-(3-methyl-2-oxo-8-quinolin-3-yl-2,3-dihydro-imidazo[4,5-c]quinolin-1-yl)-phenyl]-propionitrile], for which the “p-S6 S240/244 level” value in experiment [1] (50 nM) is recorded as “did not reduce”. The “LC3-II/I conversion (autophagy induction)” value (“LC3-II/I conversion” below) in experiment [2] (50 nM) is on record as “no effect”; in experiment [2] (300 nM), “induced autophagy; also recorded: reached similar efficacy”. Besides, in experiment [3] (50 nM), the polyQ density entry was “no effect”. Moreover, the “preservation of DARPP-32 level” value in experiment [4] (setting [8]) is reported as “ineffective”. In addition, the “preservation of neurofilament level” value in experiment [5] (setting [8]) is on record as “ineffective”. Besides, the “concentration at which mTOR inhibition predominates” value in experiment [6] was “less than 100 nmol/L”. In addition, the “concentration giving dual PI3K/mTOR inhibition” value in experiment [7] is recorded as “approximately 500 nmol/L”.
Consider `COc1ccc(-c2ccc3c(N4CCOC[C@@H]4C)nc(N4CCOC[C@@H]4C)nc3n2)cc1CO` [CCG168, {5-[2,4-bis-((S)-3-methyl-morpholin-4-yl)-pyrido[2,3d]pyrimidin-7-yl]-2-methoxy-phenyl}-methanol], for which, in experiment [2] (300 nM), the “LC3-II/I conversion” value was “induced autophagy; also recorded: reached similar efficacy”.
Regarding `CO[C@H]1C[C@@H]2CC[C@@H](C)[C@@](O)(O2)C(=O)C(=O)N2CCCC[C@H]2C(=O)O[C@H]([C@H](C)C[C@@H]2CC[C@@H](OCCO)[C@H](OC)C2)CC(=O)[C@H](C)/C=C(\C)[C@@H](O)[C@@H](OC)C(=O)[C@H](C)C[C@H](C)/C=C/C=C/C=C/1C` [RAD001, (1R,9S,12S,15R,16E,18R,19R,21R,23S,24E,26E,28E,30S,32S,35R)-1,18-dihydroxy-12-{(1R)-2-[(1S,3R,4R)-4-(2-hydroxyethoxy)-3-methoxycyclohexyl]-1-methylethyl}-19,30-dimethoxy-15,17,21,23,29,35-hexamethyl-11,36-dioxa-4-aza-tricyclo[30.3.1.0^4,9]hexatriaconta-16,24,26,28-tetraene-2,3,10,14,20-pentaone], the “p-S6 S240/244 level” value in experiment [1] (250 nM) is “reduced”. Further, the “LC3-II/I conversion” value in experiment [2] (250 nM) is “no effect”. The polyQ density entry in experiment [3] (250 nM) is on record as “no effect”. Further, the “preservation of DARPP-32 level” value in experiment [4] (setting [9]) is on record as “ineffective”. For the same compound, in experiment [5] (setting [9]), the “preservation of neurofilament level” value is “ineffective”.
